The source of these data is ChEMBL document CHEMBL1201862, “PubChem BioAssay data set” (2004).

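Assay format: 96-well plates, 48-hour exposure. GI50 marks 50% less growth.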 Calls of active or inactive are those of the source. Cut-off read from the data, not from the text of the source: active = GI50 up to about 1.1 µM and inactive = higher.

Holding throughout (assay): inhibition of tumour cell growth, NCI panel, 48 h
Assay [1] deals with 786-0.
Assay [2] has as its system ACHN.
The subject of assay [3] is EKVX.
Assay [4] deals with HCT-15.
For assay [5], the system named is HOP-62.
Assay [6] has as its system K562.
Assay [7] deals with MCF7.
Assay [8] has as its system MOLT-4.
Assay [9] deals with Malme-3M.
Assay [10] concerns NCI-H23.
The subject of assay [11] is PC-3.
Assay [12] relates to SK-MEL-28.
In assay [13] the test system is SK-MEL-2.
In assay [14] the test system is SN12C.
The test system of assay [15] is SNB-75.
Assay [16] relates to SR.
The subject of assay [17] is TK-10.
Assay [18] concerns U-251.
The test system of assay [19] is HCC 2998.

For the compound `COc1ccc2oc(=N)c(C(=O)NCc3ccccc3)cc2c1`, the GI50 in assay [1] is 27.9 µM (inactive); in assay [2] it was 13.3 µM (inactive); in [3] it was 31.2 µM (inactive); in [4], 21.1 µM; in assay [5], 21.2 µM (inactive); in [6], 41.6 µM (inactive). The GI50 in assay [7] is 24 µM (inactive); in [8], 46.3 µM (inactive); in assay [9] it was 15.5 µM (inactive); in assay [10], 18.1 µM (inactive); in assay [11] it was 30.5 µM (inactive); in assay [12], 26.2 µM (inactive). In addition, the GI50 is 18.6 µM (inactive) in assay [13]; 32.2 µM (inactive) in [14]; 15.3 µM (inactive) in assay [15]; 54.8 µM (inactive) in assay [16]; 22.6 µM (inactive) in assay [17]; 16.9 µM (inactive) in assay [18].

As for `C[C@@H](NC(=O)OC1C=CC2(CC1)C(=O)N(C)c1ccccc12)c1cccc2ccccc12` (some centres not stated), the GI50 was > 25 µM (inactive) in [1]; > 25 µM (inactive) in assay [2]; 12 µM (inactive) in assay [3]; > 25 µM (inactive) in [19]; 14.9 µM in assay [4]; > 25 µM (inactive) in assay [5]. Moreover, the GI50 in assay [6] was 15.1 µM (inactive); in assay [7], 7.59 µM (inactive); in assay [8] it was 5.93 µM (inactive); in assay [10], 12.2 µM (inactive); in [11], > 25 µM (inactive); in assay [12], > 25 µM (inactive). Further, the GI50 was > 25 µM (inactive) in [13]; > 25 µM (inactive) in assay [14]; 21.5 µM (inactive) in assay [15]; 10.2 µM (inactive) in assay [16]; > 25 µM (inactive) in assay [17]; > 25 µM (inactive) in [18].

`O=C1C(Br)=CC2(C=C1Br)CCNC1=C2C(=O)c2[nH]cnc2C1=O`: the GI50 in assay [1] was 16.4 µM (inactive); in assay [2], 14.6 µM (inactive); in assay [3] it was 18.1 µM (inactive); in [19], 25.8 µM (inactive); in assay [4], 15.6 µM; in assay [5], 17.2 µM (inactive). The GI50 was 12.4 µM (inactive) in assay [6]; 14.6 µM (inactive) in [7]; 41.5 µM (inactive) in assay [8]; 12.6 µM (inactive) in assay [10]; 25.7 µM (inactive) in [11]; 16.1 µM (inactive) in assay [12]. Further, the GI50 in [13] was 9.12 µM (inactive); in assay [15] it was 15.6 µM (inactive); in assay [16], 30.1 µM (inactive); in assay [17], 29.2 µM (inactive); in assay [18], 15 µM (inactive).

In the case of `c1ccc(-c2cc(C3CO3)c3ccccc3n2)cc1` (configuration not stated), the GI50 in [1] is 15.5 µM (inactive); in [2], 18.4 µM (inactive); in assay [3] it was 18.2 µM (inactive); in assay [19] it was 20 µM (inactive); in [4], 19.5 µM; in assay [5] it was 26.5 µM (inactive). Besides, the GI50 is 34.4 µM (inactive) in assay [6]; 16.2 µM (inactive) in assay [7]; 23.7 µM (inactive) in assay [8]; 19.1 µM (inactive) in assay [10]; 19.5 µM (inactive) in assay [11]; 38.5 µM (inactive) in [12]. The GI50 is 18.4 µM (inactive) in assay [13]; 16.3 µM (inactive) in assay [14]; 25.9 µM (inactive) in [15]; 18.3 µM (inactive) in assay [16]; 21.6 µM (inactive) in [17]; 16 µM (inactive) in [18].

Take `O=c1[nH]nc(-c2ccccc2)n1-c1ccncc1`: the GI50 in [1] is > 100 µM (inactive); in [2], > 100 µM (inactive); in assay [3] it was > 100 µM (inactive); in assay [19], > 100 µM (inactive); in assay [4], over 100 µM; in [5], > 100 µM (inactive). Further, the GI50 in [6], in assay [7], in [8], in [9], in assay [10] and in assay [11] was > 100 µM (inactive) throughout. Further, the GI50 in assay [12], in assay [14], in assay [15], in [16], in assay [17] and in assay [18] was > 100 µM (inactive) each time.

Turning to `OC(c1nc2ccccc2[nH]1)C(O)C(O)C(O)c1nc2ccccc2[nH]1` (configuration not stated), the GI50 in assay [1] was > 100 µM (inactive); in [2], > 100 µM (inactive); in assay [3], > 100 µM (inactive); in assay [4], over 100 µM; in [5], > 100 µM (inactive); in assay [6] it was > 100 µM (inactive). Also, the GI50 in [7], in [8], in assay [9], in assay [11], in [12] and in [13] was > 100 µM (inactive) in each case. Moreover, the GI50 in [14], in assay [15], in assay [16], in assay [17] and in [18] was > 100 µM (inactive) in each case.

For the compound `O=C1/C(=C/c2cccc(Br)c2)CCc2ccccc21`, the GI50 in [1] is 16.3 µM (inactive); in [2], 14.2 µM (inactive); in [3], 17.6 µM (inactive); in assay [4], 11.5 µM; in [5] it was 16 µM (inactive); in assay [6], 6.65 µM (inactive). In addition, the GI50 was 3.75 µM (inactive) in [7]; 10.2 µM (inactive) in [8]; 12.4 µM (inactive) in assay [9]; 15.8 µM (inactive) in assay [10]; 14.2 µM (inactive) in [11]; 18.4 µM (inactive) in assay [12]. In addition, the GI50 in assay [13] is 12.9 µM (inactive); in assay [14], 15.4 µM (inactive); in [15] it was 14.5 µM (inactive); in [16], 4.1 µM (inactive); in [17] it was 16.5 µM (inactive); in [18], 14.6 µM (inactive).

Take `Nc1ccc2[nH]c(C(=O)N3CC(CCl)c4c3cc(N)c3ccccc43)cc2c1` (configuration not stated): the GI50 in assay [1] is < 0.01 µM (active); in assay [2], < 0.01 µM (active); in assay [3] it was < 0.01 µM (active); in assay [19], < 0.01 µM (active); in assay [4], under 0.01 µM; in assay [5], < 0.01 µM (active). The GI50 in [6] is < 0.01 µM (active); in assay [7] it was < 0.01 µM (active); in [8], < 0.01 µM (active); in assay [10] it was < 0.01 µM (active); in [11], < 0.01 µM (active); in [12], 0.013 µM (active). The GI50 in assay [13], in [14], in assay [15], in assay [16], in assay [17] and in [18] was < 0.01 µM (active) each time.
